Legend:
Type in all cases: biochemical
PLK1 = PLK1 (Homo sapiens, UniProt P53350); assay: PLK TR-FRET peptide assay, PLK1; details: GST-PLK1, 60 min reaction
PLK2 = PLK2 (Homo sapiens, UniProt Q9NYY3); assay: PLK TR-FRET peptide assay, PLK2; details: PLK TR-FRET peptide assay, GST-PLK2, 60 min reaction; read-out: Plk2 IC50
PLK3 = PLK3 (Homo sapiens, UniProt Q9H4B4); assay: PLK TR-FRET peptide assay, PLK3; details: GST-PLK3, 15 min reaction, read-out: Plk3 IC50
Chain of PLK3 (Q9H4B4 whole entry): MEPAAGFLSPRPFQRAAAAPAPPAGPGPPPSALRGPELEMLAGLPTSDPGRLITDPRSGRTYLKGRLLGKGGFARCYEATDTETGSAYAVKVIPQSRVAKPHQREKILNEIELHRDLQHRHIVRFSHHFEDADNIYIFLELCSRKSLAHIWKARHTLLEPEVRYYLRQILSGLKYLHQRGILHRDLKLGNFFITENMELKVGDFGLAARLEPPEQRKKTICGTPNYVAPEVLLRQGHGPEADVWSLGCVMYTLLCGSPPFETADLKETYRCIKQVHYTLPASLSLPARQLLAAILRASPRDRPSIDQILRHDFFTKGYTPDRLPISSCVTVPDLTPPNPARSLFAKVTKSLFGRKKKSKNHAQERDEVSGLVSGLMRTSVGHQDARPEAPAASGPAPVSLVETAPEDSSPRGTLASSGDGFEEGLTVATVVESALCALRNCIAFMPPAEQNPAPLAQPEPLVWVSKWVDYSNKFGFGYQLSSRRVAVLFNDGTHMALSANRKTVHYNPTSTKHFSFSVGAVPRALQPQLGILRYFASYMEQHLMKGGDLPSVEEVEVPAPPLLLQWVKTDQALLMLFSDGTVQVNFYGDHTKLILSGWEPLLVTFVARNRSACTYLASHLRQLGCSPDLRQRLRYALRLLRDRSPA

Chain of PLK1 (P53350 whole entry): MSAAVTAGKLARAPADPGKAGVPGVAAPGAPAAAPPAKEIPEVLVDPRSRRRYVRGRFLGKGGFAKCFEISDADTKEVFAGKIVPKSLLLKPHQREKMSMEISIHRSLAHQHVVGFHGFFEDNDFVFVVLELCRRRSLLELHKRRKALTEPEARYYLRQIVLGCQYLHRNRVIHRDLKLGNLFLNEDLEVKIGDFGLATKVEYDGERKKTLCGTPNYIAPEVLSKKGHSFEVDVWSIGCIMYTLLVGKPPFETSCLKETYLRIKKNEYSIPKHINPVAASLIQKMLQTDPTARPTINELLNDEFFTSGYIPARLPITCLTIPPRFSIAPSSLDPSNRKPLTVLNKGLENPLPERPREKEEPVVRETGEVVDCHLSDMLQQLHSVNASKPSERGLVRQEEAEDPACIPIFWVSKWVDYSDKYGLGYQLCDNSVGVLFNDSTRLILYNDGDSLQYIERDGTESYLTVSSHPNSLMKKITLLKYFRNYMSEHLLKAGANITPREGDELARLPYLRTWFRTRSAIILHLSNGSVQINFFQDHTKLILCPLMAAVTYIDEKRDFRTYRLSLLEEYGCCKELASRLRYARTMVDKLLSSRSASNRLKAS
Chain of PLK2 (Q9NYY3 whole entry): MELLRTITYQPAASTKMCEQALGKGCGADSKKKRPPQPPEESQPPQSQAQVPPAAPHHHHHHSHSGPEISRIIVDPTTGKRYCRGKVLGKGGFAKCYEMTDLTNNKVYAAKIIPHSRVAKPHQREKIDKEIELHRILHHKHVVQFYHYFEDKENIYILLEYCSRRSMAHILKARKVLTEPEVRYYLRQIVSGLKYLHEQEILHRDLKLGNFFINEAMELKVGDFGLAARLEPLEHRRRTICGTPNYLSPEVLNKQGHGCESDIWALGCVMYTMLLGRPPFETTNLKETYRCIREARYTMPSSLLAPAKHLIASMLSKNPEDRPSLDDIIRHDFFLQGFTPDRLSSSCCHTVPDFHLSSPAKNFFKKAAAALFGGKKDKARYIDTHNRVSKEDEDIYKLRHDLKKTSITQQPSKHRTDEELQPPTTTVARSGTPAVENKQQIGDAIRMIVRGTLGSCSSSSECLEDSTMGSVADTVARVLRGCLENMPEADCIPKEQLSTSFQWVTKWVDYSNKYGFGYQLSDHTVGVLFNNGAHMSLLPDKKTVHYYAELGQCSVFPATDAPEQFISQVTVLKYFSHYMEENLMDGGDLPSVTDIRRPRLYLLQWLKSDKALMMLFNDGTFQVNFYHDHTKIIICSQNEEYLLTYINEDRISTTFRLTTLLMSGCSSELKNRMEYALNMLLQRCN

Row | Structure (SMILES) | IC50 (PLK1) [µM] | IC50 (PLK2) [µM] | IC50 (PLK3) [µM]
1 | CC[C@@H]1C(=O)N(C)c2cnc(-c3ccncc3NC(=O)CC(C)(C)C)nc2N1C(C)C [Example 103, (R)—N-(4-(7-ethyl-8-isopropyl-5-methyl-6-oxo-5,6,7,8-tetrahydropteridin-2-yl)pyridin-3-yl)-3,3-dimethylbutanamide] | 10 to 50 | 10 to 50 | 10 to 50
2 | CC[C@@H]1C(=O)N(C)c2cnc(-c3ccncc3NC(=O)c3ccccc3)nc2N1C(C)C [Example 104, (R)—N-(4-(7-ethyl-8-isopropyl-5-methyl-6-oxo-5,6,7,8-tetrahydropteridin-2-yl)pyridin-3-yl)benzamide] | 1 to 10 | < 1 | 1 to 10
3 | CC[C@@H]1C(=O)N(C)c2cnc(-c3ccncc3CN)nc2N1C1CCCC1 [Example 105, (R)-2-(3-(aminomethyl)pyridin-4-yl)-8-cyclopentyl-7-ethyl-5-methyl-7,8-dihydropteridin-6(5H)-one] | 10 to 50 | 10 to 50 | > 50
4 | CC[C@@H]1C(=O)N(C)c2cnc(-c3ccncc3CNC(=O)OC(C)(C)C)nc2N1C(C)C [Example 107, (R)-tert-butyl (4-(7-ethyl-8-isopropyl-5-methyl-6-oxo-5,6,7,8-tetrahydropteridin-2-yl)pyridin-3-yl)methylcarbamate] | > 50 | > 50 | > 50
5 | CC[C@@H]1C(=O)N(C)c2cnc(-c3ccncc3NC(=O)CC(C)(C)C)nc2N1C1CCCC1 [Example 108, (R)—N-(4-(8-cyclopentyl-7-ethyl-5-methyl-6-oxo-5,6,7,8-tetrahydropteridin-2-yl)pyridin-3-yl)-3,3-dimethylbutanamide] | 10 to 50 | 10 to 50 | > 50
6 | CC[C@@H]1C(=O)N(C)c2cnc(-n3ccnc3N3C(=O)CCC3=O)nc2N1C1CCC1 [Example 112, (R)-1-(1-(8-cyclobutyl-7-ethyl-5-methyl-6-oxo-5,6,7,8-tetrahydropteridin-2-yl)-1H-imidazol-2-yl)pyrrolidine-2,5-dione] | 10 to 50 | 10 to 50 | > 50
7 | CC[C@@H]1C(=O)N(C)c2cnc(-n3ccnc3-n3ccccc3=O)nc2N1C1CCCC1 [Example 113, (R)-8-cyclopentyl-7-ethyl-5-methyl-2-(2-(2-oxopyridin-1(2H)-yl)-1H-imidazol-1-yl)-7,8-dihydropteridin-6(5H)-one] | 1 to 10 | < 1 | 1 to 10
8 | CC[C@@H]1C(=O)N(C)c2cnc(-c3ccncc3NC(=O)OC)nc2N1C1CCCC1 [Example 114, (R)-methyl 4-(8-cyclopentyl-7-ethyl-5-methyl-6-oxo-5,6,7,8-tetrahydropteridin-2-yl)pyridin-3-ylcarbamate] | 1 to 10 | < 1 | 10 to 50
9 | CC[C@@H]1C(=O)N(C)c2cnc(-c3ccncc3NC(C)=O)nc2N1C1CCCC1 [Example 115, (R)—N-(4-(8-cyclopentyl-7-ethyl-5-methyl-6-oxo-5,6,7,8-tetrahydropteridin-2-yl)pyridin-3-yl)acetamide] | 1 to 10 | < 1 | 10 to 50
10 | CC[C@@H]1C(=O)N(C)c2cnc(-c3ccncc3NS(C)(=O)=O)nc2N1C1CCCC1 [Example 116, (R)—N-(4-(8-cyclopentyl-7-ethyl-5-methyl-6-oxo-5,6,7,8-tetrahydropteridin-2-yl)pyridin-3-yl)methanesulfonamide] | 1 to 10 | < 1 | > 50
11 | CC[C@@H]1C(=O)N(C)c2cnc(-c3ccncc3NC(=O)OC)nc2N1C(C)C [Example 117, (R)-methyl 4-(7-ethyl-8-isopropyl-5-methyl-6-oxo-5,6,7,8-tetrahydropteridin-2-yl)pyridin-3-ylcarbamate] | 1 to 10 | 1 to 10 | > 50
12 | CC[C@@H]1C(=O)N(C)c2cnc(-c3ccncc3NC(C)=O)nc2N1C(C)C [Example 118, (R)—N-(4-(7-ethyl-8-isopropyl-5-methyl-6-oxo-5,6,7,8-tetrahydropteridin-2-yl)pyridin-3-yl)acetamide] | > 50 | 1 to 10 | > 50
13 | CC[C@@H]1C(=O)N(C)c2cnc(-c3ccncc3NS(C)(=O)=O)nc2N1C(C)C [Example 119, (R)—N-(4-(7-ethyl-8-isopropyl-5-methyl-6-oxo-5,6,7,8-tetrahydropteridin-2-yl)pyridin-3-yl)methanesulfonamide] | > 50 | 1 to 10 | > 50
14 | CC[C@@H]1C(=O)N(C)c2cnc(-c3ccncc3NS(=O)(=O)c3ccccc3)nc2N1C(C)C [Example 120, (R)—N-(4-(7-ethyl-8-isopropyl-5-methyl-6-oxo-5,6,7,8-tetrahydropteridin-2-yl)pyridin-3-yl)benzenesulfonamide] | 1 to 10 | 1 to 10 | > 50
15 | CC[C@@H]1C(=O)N(C)c2cnc(-c3ccncc3CNC(=O)OC)nc2N1C1CCCC1 [Example 121, (R)-methyl (4-(8-cyclopentyl-7-ethyl-5-methyl-6-oxo-5,6,7,8-tetrahydropteridin-2-yl)pyridin-3-yl)methylcarbamate] | 10 to 50 | 1 to 10 | 10 to 50
16 | CC[C@@H]1C(=O)N(C)c2cnc(-c3ccncc3CNC(C)=O)nc2N1C1CCCC1 [Example 122, (R)—N-((4-(8-cyclopentyl-7-ethyl-5-methyl-6-oxo-5,6,7,8-tetrahydropteridin-2-yl)pyridin-3-yl)methyl)acetamide] | 10 to 50 | 1 to 10 | 10 to 50
17 | CC[C@@H]1C(=O)N(C)c2cnc(-c3ccncc3CNC(=O)c3ccccc3)nc2N1C1CCCC1 [Example 123, (R)—N-((4-(8-cyclopentyl-7-ethyl-5-methyl-6-oxo-5,6,7,8-tetrahydropteridin-2-yl)pyridin-3-yl)methyl)benzamide] | 10 to 50 | 10 to 50 | > 50
18 | CC[C@@H]1C(=O)N(C)c2cnc(-c3ccncc3CNS(C)(=O)=O)nc2N1C1CCCC1 [Example 124, (R)—N-((4-(8-cyclopentyl-7-ethyl-5-methyl-6-oxo-5,6,7,8-tetrahydropteridin-2-yl)pyridin-3-yl)methyl)methanesulfonamide] | 1 to 10 | 1 to 10 | 10 to 50
19 | CC[C@@H]1C(=O)N(C)c2cnc(-c3ccncc3CNS(=O)(=O)c3ccccc3)nc2N1C1CCCC1 [Example 125, (R)—N-((4-(8-cyclopentyl-7-ethyl-5-methyl-6-oxo-5,6,7,8-tetrahydropteridin-2-yl)pyridin-3-yl)methyl)benzenesulfonamide] | 10 to 50 | 1 to 10 | 10 to 50
20 | CC[C@@H]1C(=O)N(C)c2cnc(-c3ccncc3CN)nc2N1C(C)C [Example 126, (R)-2-(3-(aminomethyl)pyridin-4-yl)-7-ethyl-8-isopropyl-5-methyl-7,8-dihydropteridin-6(5H)-one] | > 50 | 10 to 50 | > 50
21 | CC[C@@H]1C(=O)N(C)c2cnc(-c3ccncc3NS(=O)(=O)c3ccccc3)nc2N1C1CCCC1 [Example 127, (R)—N-(4-(8-cyclopentyl-7-ethyl-5-methyl-6-oxo-5,6,7,8-tetrahydropteridin-2-yl)pyridin-3-yl)benzenesulfonamide] | 10 to 50 | 10 to 50 | > 50
22 | CC[C@@H]1C(=O)N(C)c2cnc(-c3ccncc3CNC(=O)OC)nc2N1C(C)C [Example 128, (R)-methyl (4-(7-ethyl-8-isopropyl-5-methyl-6-oxo-5,6,7,8-tetrahydropteridin-2-yl)pyridin-3-yl)methylcarbamate] | 10 to 50 | 1 to 10 | 10 to 50
23 | CC[C@@H]1C(=O)N(C)c2cnc(-c3ccncc3CNC(C)=O)nc2N1C(C)C [Example 129, (R)—N-((4-(7-ethyl-8-isopropyl-5-methyl-6-oxo-5,6,7,8-tetrahydropteridin-2-yl)pyridin-3-yl)methyl)acetamide] | > 50 | 10 to 50 | > 50
24 | CC[C@@H]1C(=O)N(C)c2cnc(-c3ccncc3CNC(=O)c3ccccc3)nc2N1C(C)C [Example 130, (R)—N-((4-(7-ethyl-8-isopropyl-5-methyl-6-oxo-5,6,7,8-tetrahydropteridin-2-yl)pyridin-3-yl)methyl)benzamide] | > 50 | > 50 | > 50
25 | CC[C@@H]1C(=O)N(C)c2cnc(-c3ccncc3CNS(C)(=O)=O)nc2N1C(C)C [Example 131, (R)—N-((4-(7-ethyl-8-isopropyl-5-methyl-6-oxo-5,6,7,8-tetrahydropteridin-2-yl)pyridin-3-yl)methyl)methanesulfonamide] | > 50 | 10 to 50 | > 50
26 | CC[C@@H]1C(=O)N(C)c2cnc(-c3ccncc3CNS(=O)(=O)c3ccccc3)nc2N1C(C)C [Example 136, (R)—N-((4-(7-ethyl-8-isopropyl-5-methyl-6-oxo-5,6,7,8-tetrahydropteridin-2-yl)pyridin-3-yl)methyl)benzenesulfonamide] | 10 to 50 | 1 to 10 | > 50
27 | CC[C@@H]1C(=O)N(C)c2cnc(-n3ccnc3-c3cnccn3)nc2N1C1CC1 [Example 141, (R)-8-cyclopropyl-7-ethyl-5-methyl-2-(2-(pyrazin-2-yl)-1H-imidazol-1-yl)-7,8-dihydropteridin-6(5H)-one] | > 50 | 1 to 10 | > 50
28 | CC[C@@H]1C(=O)N(C)c2cnc(-c3ccncc3-c3ccccc3)nc2N1C1CC1 [Example 142, (R)-8-cyclopropyl-7-ethyl-5-methyl-2-(3-phenylpyridin-4-yl)-7,8-dihydropteridin-6(5H)-one] | 10 to 50 | < 1 | 10 to 50
29 | CC[C@@H]1C(=O)N(C)c2cnc(-n3ccnc3-c3cncnc3)nc2N1C1CC1 [Example 143, (R)-8-cyclopropyl-7-ethyl-5-methyl-2-(2-(pyrimidin-5-yl)-1H-imidazol-1-yl)-7,8-dihydropteridin-6(5H)-one] | 10 to 50 | 1 to 10 | 10 to 50
